The results in this text go back to patent US9475848B2 (priority 2012, dated 2016).

The subject of test [1] is B. pertussis. Format: cell-based, Bordetella pertussis.
The subject of test [2] is pertussis toxin (PT) production. It is filed as cell-based, Bordetella pertussis.
In test [3] the test system is Bordetella pertussis. Format: cell-based. Particulars: for accumulation of bvg^− cells: MgSO4 20 mM (series C), niacin 0.604 g/L (series B) or both, compared with series A.
Test [4] concerns B. pertussis.
Setting [5] is: COQ255: niacin 0.604 g/L in first two pre-cultures, 0.004 g/L thereafter.

Each structure is given as a SMILES string. Where “and” joins values, the source holds several entries; their conditions need not be identical. Equal entries are not always repeated. Where two headings read alike, the source gives them in different places.

For `O=P([O-])(O)O.[K+]` [KH2PO4], the “Final biomass (OD650 nm)” value in test [1] (COQ279: KH2PO4 0.8 g/L) is reported as 9.2 OD650 nm. Moreover, the “Final biomass (OD650 nm)” value in test [1] (COQ280: KH2PO4 0.5 g/L) turned out to be 9.7 OD650 nm. In test [2], the “PT concentration at end of fermentation” value is 19 mg/L and 13 mg/L; the “Specific PT production at end of fermentation” value (from here on “Specific PT production at end”) is 2.0 mg L^−1 mg L^−1 OD650 nm^−1 and 1.4 mg L^−1 OD650 nm^−1; the “decrease in PT production compared to COQ280” value came to 32%.

Take `N[C@@H](CS)C(=O)O` [L-cysteine]: the “Final biomass (OD650 nm)” value in test [1] (COQ280: L-cysteine 0.04 g/L) stood at 9.7 OD650 nm. Further, the “Final biomass (OD650 nm)” value in test [1] (COQ396: L-cysteine 0.2 g/L) worked out at 11.0 OD650 nm. In test [2], the “PT concentration at end of fermentation” value was 19 mg/L and 13 mg/L; the “Specific PT production at end” value is 2.0 mg L^−1 mg L^−1 OD650 nm^−1 and 1.2 mg L^−1 OD650 nm^−1; the “decrease in PT production compared to COQ280” value is 32%.

`O=S(=O)([O-])[O-].[Mg+2]` [MgSO4]: in test [3], the “accumulation of bvg^− cells” value is reported as “significantly lower accumulation of bvg^− cells”. In addition, the “Proportion of bvg^− cells” value in test [3] (Series C: MgSO4 20 mM, niacin 0.004 g/L, end of fourth culture, start 1%) is recorded as 2%; in test [3] (Series C: MgSO4 20 mM, niacin 0.004 g/L, end of third culture, start 1%), 3%.

As for `O=C(O)c1cccnc1` [niacin], in test [4], the “Final proportion of bvg^− in 20 L-fermentor” value is 13%. In addition, the “Initial proportion of bvg^− in 20 L-fermentor” value in test [4] is listed as 3%. For the same compound, the “number of generations for which control of bvg^− take-over is effective” value in test [3] is “up to 100 generations”. The “accumulation of bvg^− cells” value in test [3] is “significantly lower accumulation of bvg^− cells”. Moreover, the “Proportion of bvg^− cells” value in test [3] (Series A: niacin 0.004 g/L, no MgSO4, end of fourth culture, start 1%) is listed as 8%; in test [3] (Series A: niacin 0.004 g/L, no MgSO4, end of third culture, start 1%) it was 5%; in test [3] (Series B: niacin 0.604 g/L, no MgSO4, end of fourth culture, start 1%) it was 2%; in test [3] (Series B: niacin 0.604 g/L, no MgSO4, end of third culture, start 1%), 1%; in test [3] (Table 4 Series A: niacin 0.004 g/L, end of first culture, start 6%), 9%; in test [3] (Table 4 Series A: niacin 0.004 g/L, end of second culture, start 6%), 14%. In addition, the “Proportion of bvg^− cells” value in test [3] (Table 4 Series A: niacin 0.004 g/L, end of third culture, start 6%) was determined as 24%; in test [3] (Table 4 Series B: niacin 0.021 g/L, end of first culture, start 6%), 9%; in test [3] (Table 4 Series B: niacin 0.021 g/L, end of second culture, start 6%), 15%; in test [3] (Table 4 Series B: niacin 0.021 g/L, end of third culture, start 6%) it was 19%; in test [3] (Table 4 Series C: niacin 0.113 g/L, end of first culture, start 6%) it was 10%; in test [3] (Table 4 Series C: niacin 0.113 g/L, end of second culture, start 6%), 14%. Also, the “Proportion of bvg^− cells” value in test [3] (Table 4 Series C: niacin 0.113 g/L, end of third culture, start 6%) came out at 21%; in test [3] (Table 4 Series D: niacin 0.604 g/L, end of first culture, start 6%), 5%; in test [3] (Table 4 Series D: niacin 0.604 g/L, end of second culture, start 6%), 5%; in test [3] (Table 4 Series D: niacin 0.604 g/L, end of third culture, start 6%) it was 4%. Further, the “controlling the take-over of bvg^− cells” value in test [3] (low niacin concentrations) is “less effective”. In addition, the “control of the take-over of bvg^− cells” value in test [3] (niacin 0.6 g/L rather than 0.004 g/L, independently of initial proportion of bvg− cells) is recorded as “effectively control the take-over of bvg^− cells”. In addition, in test [3] (niacin 0.604 g/L, up to 15 generations), the “bvg^− take-over” value is on record as “no bvg^− take-over was observed”. Moreover, the “Final biomass (OD650 nm)” value in test [1] (setting [5]) came out at 7.2 OD650 nm. Further, the Total fermentation time in test [1] (setting [5]) came out at 43 h. For the same compound, the “PT concentration at end of fermentation” value in test [2] worked out at 22.8 mg/L. Moreover, the “Specific PT production at end” value in test [2] was found to be 3.2 mg L^−1 OD650 nm^−1.

Consider `O=C(O)[C@@H]1CCCN1` [proline], for which the “Final biomass (OD650 nm)” value is recorded as 11.3 OD650nm in test [1] (COQ278: proline 12 g/L, sodium glutamate 7 g/L, NaCl 0 g/L) and 9.7 OD650nm in test [1] (COQ280: proline 1 g/L, sodium glutamate 20 g/L, NaCl 0 g/L).
